The values below come from patent publication US8609708B2 (Human BioMolecular Research Institute, priority 2003, dated 2013).

For data set [1], the target named is Acetylcholine Binding Protein (Lymnaea stagnalis (Great pond snail) (Helix stagnalis), UniProt P58154). More on the design: species or system Lymnaca stagnalis.
The target in another data set is mouse CYP2A5 (Mus musculus (Mouse), UniProt P20852). Kind of data set: Inhibition of mouse CYP2A5. Particulars: read-out: IC50 mCYP2A5. It is filed as biochemical.
Chain of mouse CYP2A5 (P20852 whole entry): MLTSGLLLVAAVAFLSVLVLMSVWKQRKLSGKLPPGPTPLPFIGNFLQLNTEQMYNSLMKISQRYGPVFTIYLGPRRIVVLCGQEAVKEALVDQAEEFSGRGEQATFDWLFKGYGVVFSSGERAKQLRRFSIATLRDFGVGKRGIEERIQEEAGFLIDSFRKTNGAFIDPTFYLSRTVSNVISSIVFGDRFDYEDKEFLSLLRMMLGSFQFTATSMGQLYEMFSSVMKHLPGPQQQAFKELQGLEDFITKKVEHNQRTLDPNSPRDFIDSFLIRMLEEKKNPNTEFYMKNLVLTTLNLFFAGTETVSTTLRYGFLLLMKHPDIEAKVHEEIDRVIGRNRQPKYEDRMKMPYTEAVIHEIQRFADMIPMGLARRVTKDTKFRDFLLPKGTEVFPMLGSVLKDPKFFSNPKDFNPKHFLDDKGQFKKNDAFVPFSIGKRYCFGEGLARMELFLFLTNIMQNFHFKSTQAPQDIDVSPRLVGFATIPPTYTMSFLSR
The target in a further data set is human CYP2A6 (Homo sapiens (Human), UniProt P11509). The conditions noted are these: for IC50: human, pH 7.5.
Chain of human CYP2A6 (P11509 whole entry): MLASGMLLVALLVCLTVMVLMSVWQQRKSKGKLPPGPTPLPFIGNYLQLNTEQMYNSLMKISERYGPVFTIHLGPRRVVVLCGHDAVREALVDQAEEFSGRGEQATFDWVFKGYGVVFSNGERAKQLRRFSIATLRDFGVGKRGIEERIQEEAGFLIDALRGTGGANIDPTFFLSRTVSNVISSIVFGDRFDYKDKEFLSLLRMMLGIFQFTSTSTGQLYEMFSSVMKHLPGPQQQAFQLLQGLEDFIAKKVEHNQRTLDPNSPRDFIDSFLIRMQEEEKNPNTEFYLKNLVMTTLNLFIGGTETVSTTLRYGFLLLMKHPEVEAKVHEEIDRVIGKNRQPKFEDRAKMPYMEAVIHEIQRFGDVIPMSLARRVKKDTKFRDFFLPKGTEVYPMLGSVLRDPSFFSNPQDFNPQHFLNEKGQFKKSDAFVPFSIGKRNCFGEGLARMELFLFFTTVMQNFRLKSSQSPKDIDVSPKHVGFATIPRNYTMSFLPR
For data set [2], the target named is T1, CYP2A13 (Homo sapiens (Human), UniProt Q16696). Kind of data set: in vitro.
T1 sequence (Q16696 whole entry): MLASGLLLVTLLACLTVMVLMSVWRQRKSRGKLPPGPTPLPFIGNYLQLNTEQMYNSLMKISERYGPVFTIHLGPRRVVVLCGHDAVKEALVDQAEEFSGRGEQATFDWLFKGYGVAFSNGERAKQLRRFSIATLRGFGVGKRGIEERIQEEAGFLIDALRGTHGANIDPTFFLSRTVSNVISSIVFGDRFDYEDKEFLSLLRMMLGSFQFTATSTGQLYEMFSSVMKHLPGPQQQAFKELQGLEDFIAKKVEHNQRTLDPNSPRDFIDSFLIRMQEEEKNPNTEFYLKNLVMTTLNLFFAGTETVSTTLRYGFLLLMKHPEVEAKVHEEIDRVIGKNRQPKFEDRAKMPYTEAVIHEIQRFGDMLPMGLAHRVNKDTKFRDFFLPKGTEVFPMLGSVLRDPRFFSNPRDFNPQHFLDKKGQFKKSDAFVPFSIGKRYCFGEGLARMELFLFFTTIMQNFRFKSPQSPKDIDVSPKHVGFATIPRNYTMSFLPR
Data set [3] addresses CYP3A4 relative to CYP2A6 (Homo sapiens (Human), UniProt P08684). Kind of data set: in vitro. Particulars: human, pH 7.5.
A further data set concerns male Wistar rats. Kind of data set: Nicotine self-administration in nicotine-addicted rats. It is filed as in vivo, rat.
Data set [4] relates to NNK-dependent tumorigenesis in mice. The conditions noted are these: mouse, in vivo; cited from earlier work.
Data set [5] addresses T1, CYP2A13. The conditions noted are these: cited from earlier work.
A short description of a further data set: in vitro. The conditions noted are these: human, microsomes, pH 7.4.
The next data set concerns the target CYP2D6 (Homo sapiens (Human), UniProt P10635). As to the kind of experiment: CYP2D6 Vivid blue substrate O-dealkylation inhibition. The conditions noted are these: Table 4; unit inferred; read-out: 2D6 IC50 ± SD. It is filed as biochemical.
Another data set concerns the target P450 2A6dH (Homo sapiens (Human), UniProt P11509, INS494HHHH). As to the kind of experiment: Difference spectra of test compounds with N-terminal truncated CYP2A6.
The nature of data set [6]: Mouse liver microsome stability assay. Particulars: mouse, microsomes, pH 7.4. (Liver microsomes are vesicles of endoplasmic reticulum, rich in cytochrome P450 enzymes.)
Description: The residue was reconstituted in methanol (200 μL), centrifuged at 13,000 rpm for 5 min and the supernatant was analyzed by high-performance liquid chromatography with an Axxi-chrom (straight-phase) silica column (4.6 mm×250 mm, 5 μm) or with a Supelco (reverse-phase) HS F5 pentafluorophenyl column (4.6 mm×250 mm, 5 μm).
A further data set concerns the target CYP2E1 (Homo sapiens (Human), UniProt P05181). As to the kind of experiment: CYP2E1 Vivid blue substrate O-dealkylation inhibition. The conditions noted are these: Table 4; unit inferred; read-out: 2E1 IC50 ± SD. It is filed as biochemical.

Chain of Acetylcholine Binding Protein (P58154 20-229 limits assumed): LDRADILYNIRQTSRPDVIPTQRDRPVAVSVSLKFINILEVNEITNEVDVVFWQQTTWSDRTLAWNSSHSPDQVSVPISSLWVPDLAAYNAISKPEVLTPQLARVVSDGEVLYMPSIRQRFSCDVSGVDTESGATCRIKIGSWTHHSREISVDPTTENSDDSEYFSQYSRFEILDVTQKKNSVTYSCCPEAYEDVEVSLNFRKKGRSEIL
Chain of P450 2A6dH (P11509 other isoform, or with tags, fused parts or gaps 1-28 replaced by MAKKTS/ins HHHH behind 494): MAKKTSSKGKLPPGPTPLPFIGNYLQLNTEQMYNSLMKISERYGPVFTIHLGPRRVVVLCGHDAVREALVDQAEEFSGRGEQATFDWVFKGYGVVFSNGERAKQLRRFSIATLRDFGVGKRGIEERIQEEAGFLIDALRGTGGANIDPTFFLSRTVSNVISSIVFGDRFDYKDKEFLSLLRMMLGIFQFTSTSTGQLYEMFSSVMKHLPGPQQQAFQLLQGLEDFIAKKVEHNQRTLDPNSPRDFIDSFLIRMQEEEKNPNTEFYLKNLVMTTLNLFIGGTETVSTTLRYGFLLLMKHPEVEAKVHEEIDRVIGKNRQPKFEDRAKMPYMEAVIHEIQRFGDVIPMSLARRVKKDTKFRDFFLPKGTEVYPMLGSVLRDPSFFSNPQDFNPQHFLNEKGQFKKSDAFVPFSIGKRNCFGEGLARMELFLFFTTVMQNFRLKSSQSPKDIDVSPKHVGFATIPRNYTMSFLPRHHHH
Chain of CYP2D6 (P10635 whole entry, the tested form may be a part): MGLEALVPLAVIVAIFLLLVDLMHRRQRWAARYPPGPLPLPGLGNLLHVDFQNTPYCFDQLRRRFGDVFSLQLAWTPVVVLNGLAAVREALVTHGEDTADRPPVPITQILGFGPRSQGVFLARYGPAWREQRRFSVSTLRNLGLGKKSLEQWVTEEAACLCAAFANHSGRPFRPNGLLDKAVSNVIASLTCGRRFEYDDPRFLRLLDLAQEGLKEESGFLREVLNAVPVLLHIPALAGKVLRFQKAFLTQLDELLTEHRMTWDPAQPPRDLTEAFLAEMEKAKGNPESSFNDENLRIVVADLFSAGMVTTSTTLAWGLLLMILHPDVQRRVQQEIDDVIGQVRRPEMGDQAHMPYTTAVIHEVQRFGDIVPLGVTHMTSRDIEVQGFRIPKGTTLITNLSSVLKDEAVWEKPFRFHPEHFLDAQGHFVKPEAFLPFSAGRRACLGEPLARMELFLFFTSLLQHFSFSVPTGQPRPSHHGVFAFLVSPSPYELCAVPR
Chain of CYP3A4 relative to CYP2A6 (P08684 whole entry): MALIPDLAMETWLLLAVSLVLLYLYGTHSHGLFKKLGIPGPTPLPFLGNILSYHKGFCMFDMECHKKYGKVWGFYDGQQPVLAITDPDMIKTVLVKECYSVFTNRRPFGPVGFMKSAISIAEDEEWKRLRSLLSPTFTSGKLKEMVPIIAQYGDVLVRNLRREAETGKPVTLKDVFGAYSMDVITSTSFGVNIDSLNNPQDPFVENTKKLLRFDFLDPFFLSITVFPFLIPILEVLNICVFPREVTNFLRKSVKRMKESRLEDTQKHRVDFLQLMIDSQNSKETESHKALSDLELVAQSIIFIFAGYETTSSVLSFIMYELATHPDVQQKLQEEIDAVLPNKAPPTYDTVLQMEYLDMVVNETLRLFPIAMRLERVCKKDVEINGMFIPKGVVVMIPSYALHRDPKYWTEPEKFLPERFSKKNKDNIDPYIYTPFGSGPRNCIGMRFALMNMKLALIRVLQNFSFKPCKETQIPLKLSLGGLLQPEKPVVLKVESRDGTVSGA
Chain of CYP2E1 (P05181 whole entry): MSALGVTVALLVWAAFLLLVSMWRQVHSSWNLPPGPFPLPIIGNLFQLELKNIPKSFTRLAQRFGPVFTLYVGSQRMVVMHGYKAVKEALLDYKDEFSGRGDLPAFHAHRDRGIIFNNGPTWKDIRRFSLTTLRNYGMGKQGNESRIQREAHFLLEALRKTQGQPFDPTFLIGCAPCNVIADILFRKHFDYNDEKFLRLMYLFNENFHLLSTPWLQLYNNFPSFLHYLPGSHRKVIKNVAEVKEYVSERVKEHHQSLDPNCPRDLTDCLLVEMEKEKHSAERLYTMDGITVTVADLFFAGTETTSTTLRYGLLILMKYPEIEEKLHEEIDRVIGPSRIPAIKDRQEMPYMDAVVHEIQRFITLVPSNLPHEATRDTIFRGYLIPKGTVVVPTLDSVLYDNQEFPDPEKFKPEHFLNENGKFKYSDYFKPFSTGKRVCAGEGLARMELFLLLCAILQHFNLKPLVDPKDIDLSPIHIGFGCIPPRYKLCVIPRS
Description for P450 2A6dH: Subsequently, test compound (in 100% ethanol, 10 μM) was added to both the cuvettes. The maximal ethanol concentration used was 2%. The difference spectra were obtained after the system reached equilibrium (3 min). All spectra were recorded at 25° C.

As for `NCc1ccc(-c2cccnc2)o1` [(5-(pyridin-3-yl)furan-2-yl)methanamine], the “% of Control” value in data set [1] is reported as 20%.
As for `NC1CC1c1cccnc1` (stereo not shown) [2-(pyridin-3-yl)cyclopropanamine], the “% of Control” value in data set [1] is listed as 8%.
As usually defined, the IC50 is the concentration needed to halve the response being measured. Usually inhibition stands for the drop in the measured response relative to a control, in per cent. High values mean a response far below the control, low ones a response near the control. As for `c1cncc(-c2ccsc2)c1` [TD-I-145], the concentration for half-maximal inhibition (IC50) on mouse CYP2A5 was found to be 800 nM; at human CYP2A6 it was 1370 ± 230 nM. The same compound displayed an inhibition at 1 µM against CYP2A13 [2] of 12%.
`c1cncc(-c2ccc(CNCc3ccc(-c4cccnc4)s3)s2)c1` [bis((5-(pyridin-3-yl)thiophen-2-yl)methyl)amine]: in [1], the “% of Control” value is listed as 10%.
As for `NCc1ccc(-c2cccnc2)o1` [Compound 2], at human CYP2A6, the “CYP2A6 inhibition (in words)” value is “significant inhibition” and the IC50 amounted to 268 ± 21 nM. Further, the selectivity ratio at 30 min in [3] was found to be 174. The “in vivo activity against nicotine self-administration (in words)” value with male Wistar rats (nicotine addicted rats) is reported as “significant in vivo activity”. Moreover, in the data set on male Wistar rats (rat, day 50, dihydrochloride salts in sterile saline, compound 2 16 mg/kg, compound 14 15 mg/kg), the “decrease of nicotine self-administration” value was determined as 70%.
Turning to `COc1c2occc2cc2ccc(=O)oc12` [methoxsalen (9-methoxypsoralen), 9-methoxypsoralen], in data set [4], the “NNK-dependent tumorigenesis in mice (in words)” value is “strongly inhibited”.
As a reminder, the Ki is a dissociation constant, usually derived from enzyme kinetics or from competition with a known ligand. Take `COc1c2occc2cc2ccc(=O)oc12` [methoxypsoralen (8-methoxypsoralen), 8-methoxypsoralen]: the Ki on CYP2A13 [5] was 110 nM.
In the case of `NCc1ccc(-c2cccnc2)o1` [TD-II-063], the IC50 at mouse CYP2A5 is 600 nM. The compound also registered an inhibition at 1 µM against CYP2A13 [2] of 29%.
A word on the half-life: it is the time needed for the level to fall by half in the phase considered. Read a high half-life as slow decline. For `NCc1ccc(-c2cccnc2)s1` [Compound 1a], the half-life in the data set “in vitro” was determined as 39 min. Further, the half-maximal inhibitory concentration (IC50) on CYP2D6 was determined as 169000 ± 17000 nM. On P450 2A6dH (difference spectrum), the λmax is recorded as 428 nm and the λmin worked out at 409 nm. In addition, at P450 2A6dH (difference spectrum with truncated CYP2A6), the binding type result was “Type II”. Also, in [6], the half-life at 40 μM worked out at 60 min. The 50% inhibitory concentration (IC50) on CYP2E1 stood at 40200 ± 18100 nM.
